The text below walks through data of BindingDB's records for patent US12544382 (Beijing Tide Pharmaceutical Co., 2026).

The test addresses Serine/threonine-protein kinase ATR (Homo sapiens, UniProt Q13535). Put plainly: ATR Kinase Activity Assay. The method, then: Biotinylated protein derived from p53 (Eurofins, art. No.: 14-952) was phosphorylated with ATR kinase. The amount of phosphorylated protein was determined by time-resolved fluorescence in this assay. The amount of phosphorylated protein was detected by anti-p53-phospho-(serine 15)-K-specific antibody (Cisbio, art. No.: 61GSTDLA) and d2 labeled anti-GST antibody (Cisbio, art. No. 61P08KAE). Before the experiment, the following working solution was prepared as required: 1× reaction buffer (20 mM HEPES PH8.0, 1% glycerol, 0.01% Brij-35), dilution buffer (20 mM HEPES PH8.0, 1% glycerol, 0.01% Brij-35, 5 mM DTT and 1% BSA), stop solution (20 mM HEPES PH8.0, 1% glycerol, 0.01% Brij-35, 250 mM EDTA), detection buffer (50 mM HEPES pH7.0, 150 mM NaCl, 267 mM KF, 0.1% sodium cholate, 0.01% Tween-20, 0.0125% sodium azide). The reagents used above are purchased from Sigma or Invitrogen, except for those where the manufacturer was mentioned.

Serine/threonine-protein kinase ATR, sequence (Q13535 whole entry): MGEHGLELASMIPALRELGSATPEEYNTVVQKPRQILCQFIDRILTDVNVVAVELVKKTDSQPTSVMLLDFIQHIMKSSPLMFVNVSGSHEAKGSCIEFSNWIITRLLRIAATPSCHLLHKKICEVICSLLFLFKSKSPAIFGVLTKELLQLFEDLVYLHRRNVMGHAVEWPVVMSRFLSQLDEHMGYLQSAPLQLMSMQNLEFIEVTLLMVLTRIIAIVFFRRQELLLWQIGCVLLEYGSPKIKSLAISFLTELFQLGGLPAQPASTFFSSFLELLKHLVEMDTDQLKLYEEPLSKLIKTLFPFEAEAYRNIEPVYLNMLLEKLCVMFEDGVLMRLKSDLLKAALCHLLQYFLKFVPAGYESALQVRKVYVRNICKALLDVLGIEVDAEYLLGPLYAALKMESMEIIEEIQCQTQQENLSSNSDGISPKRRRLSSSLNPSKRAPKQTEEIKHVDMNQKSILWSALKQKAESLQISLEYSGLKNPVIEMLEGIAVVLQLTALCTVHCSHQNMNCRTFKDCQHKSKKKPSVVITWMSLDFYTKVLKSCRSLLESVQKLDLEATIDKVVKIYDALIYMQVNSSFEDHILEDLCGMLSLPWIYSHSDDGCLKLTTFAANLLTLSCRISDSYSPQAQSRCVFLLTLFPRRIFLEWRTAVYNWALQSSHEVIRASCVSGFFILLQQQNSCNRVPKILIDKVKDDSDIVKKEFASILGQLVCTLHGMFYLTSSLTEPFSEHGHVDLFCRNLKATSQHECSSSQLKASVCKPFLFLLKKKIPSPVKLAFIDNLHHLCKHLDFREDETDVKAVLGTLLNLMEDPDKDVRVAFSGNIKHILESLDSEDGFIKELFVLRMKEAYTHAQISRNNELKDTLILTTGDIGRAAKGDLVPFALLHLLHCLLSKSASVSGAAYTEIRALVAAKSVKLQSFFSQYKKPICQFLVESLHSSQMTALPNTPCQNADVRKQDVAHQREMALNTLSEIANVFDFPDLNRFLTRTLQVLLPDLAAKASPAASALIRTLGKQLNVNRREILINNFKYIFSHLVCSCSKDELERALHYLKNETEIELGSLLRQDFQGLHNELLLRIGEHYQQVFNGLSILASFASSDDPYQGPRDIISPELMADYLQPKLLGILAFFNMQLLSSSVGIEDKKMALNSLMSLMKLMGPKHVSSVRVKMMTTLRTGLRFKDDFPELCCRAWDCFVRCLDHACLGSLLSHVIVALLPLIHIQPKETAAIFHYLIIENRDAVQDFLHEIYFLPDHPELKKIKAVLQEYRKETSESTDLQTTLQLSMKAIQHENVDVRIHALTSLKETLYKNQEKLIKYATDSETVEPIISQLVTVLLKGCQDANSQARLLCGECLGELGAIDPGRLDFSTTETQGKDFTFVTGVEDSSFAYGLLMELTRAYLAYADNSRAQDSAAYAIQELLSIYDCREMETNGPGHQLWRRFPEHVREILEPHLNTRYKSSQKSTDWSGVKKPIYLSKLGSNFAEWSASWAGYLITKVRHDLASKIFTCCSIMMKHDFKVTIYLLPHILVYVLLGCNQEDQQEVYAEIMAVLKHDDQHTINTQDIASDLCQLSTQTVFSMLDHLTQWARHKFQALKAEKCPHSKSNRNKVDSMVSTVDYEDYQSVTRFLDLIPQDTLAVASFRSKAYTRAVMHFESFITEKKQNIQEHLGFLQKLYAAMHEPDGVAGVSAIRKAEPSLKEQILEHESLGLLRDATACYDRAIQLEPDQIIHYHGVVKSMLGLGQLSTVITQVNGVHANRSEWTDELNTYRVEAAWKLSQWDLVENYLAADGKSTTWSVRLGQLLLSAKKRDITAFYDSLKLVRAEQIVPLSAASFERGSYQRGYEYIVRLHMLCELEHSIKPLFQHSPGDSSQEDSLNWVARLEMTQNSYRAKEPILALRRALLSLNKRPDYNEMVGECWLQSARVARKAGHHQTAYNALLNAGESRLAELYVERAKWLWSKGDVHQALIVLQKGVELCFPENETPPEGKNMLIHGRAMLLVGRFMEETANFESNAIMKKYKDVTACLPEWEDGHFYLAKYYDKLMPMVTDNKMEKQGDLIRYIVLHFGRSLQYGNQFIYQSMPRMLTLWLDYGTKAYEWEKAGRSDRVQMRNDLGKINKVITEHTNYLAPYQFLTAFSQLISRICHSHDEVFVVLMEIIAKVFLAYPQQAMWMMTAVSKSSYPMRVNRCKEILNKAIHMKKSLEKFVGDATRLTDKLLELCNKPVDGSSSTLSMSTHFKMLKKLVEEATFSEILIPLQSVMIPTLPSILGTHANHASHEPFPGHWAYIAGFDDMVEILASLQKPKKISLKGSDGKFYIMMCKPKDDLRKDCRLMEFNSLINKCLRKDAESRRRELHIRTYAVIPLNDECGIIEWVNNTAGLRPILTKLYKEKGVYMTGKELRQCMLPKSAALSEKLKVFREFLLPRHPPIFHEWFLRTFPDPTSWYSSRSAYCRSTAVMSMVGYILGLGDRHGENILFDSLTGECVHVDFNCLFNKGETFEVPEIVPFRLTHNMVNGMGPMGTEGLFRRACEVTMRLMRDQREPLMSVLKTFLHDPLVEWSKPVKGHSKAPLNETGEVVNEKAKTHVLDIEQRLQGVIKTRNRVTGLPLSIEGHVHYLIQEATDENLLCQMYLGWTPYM

Usually IC50 stands for the concentration that gives 50% inhibition. A high value points to weaker potency in that assay. Molecule `CNc1nc2cc(Cl)ccc2n1-c1nc(-c2c(C)nn(C3CCNCC3)c2C(F)(F)F)cc(N2CCOC[C@H]2C)n1` [US12544382, Example D25] registered a 50% inhibitory concentration (IC50) of 83 nM. To `CNc1nc2ccccc2n1-c1nc(-c2c(C)nn(C3CCNCC3)c2C(F)(F)F)cc(N2CCOC[C@H]2C)n1` [US12544382, Example D24] belongs 3 nM.

For `Cc1n[nH]c(C)c1-c1cc(N2CCOC[C@H]2C)nc(-c2ccnc3c2ccn3CC2CNC2)n1` [US12544382, Example A27], the 50% inhibitory concentration (IC50) turned out to be 47 nM. Compared with the last molecule, the IC50 is about 16-fold higher. In the case of `Cc1nn(C)c(C)c1-c1cc(N2CCOC[C@H]2C)nc(-c2ccnc(C(F)F)c2)n1` [US12544382, Example A25], the IC50 was determined as 2320 nM. Against the preceding molecule, the IC50 is about 49-fold higher.
